# Measurements taken from article PMC6393295, “Archaeal NSUN6 catalyzes m^5C72 modification on a wide-range of specific tRNAs” (Nucleic Acids Research, 2018).
# How the values were obtained:
# PhNSun6 (PH1991) [1] = biological target: T1, PhNSun6 (PH1991) (Pyrococcus horikoshii, UniProt O57712); assay: X-ray crystal structure of the complex, […] A; type: binding; conditions: co-crystallised with 1 mM ligand, pH 6.5, 16 °C, Rossmann-fold cofactor site, no tRNA
# T1 construct: full length (domains mapped to residues 1-389); E. coli Rosetta (DE3); 2 chains in P1 crystal
# T1 sequence (O57712 1-389): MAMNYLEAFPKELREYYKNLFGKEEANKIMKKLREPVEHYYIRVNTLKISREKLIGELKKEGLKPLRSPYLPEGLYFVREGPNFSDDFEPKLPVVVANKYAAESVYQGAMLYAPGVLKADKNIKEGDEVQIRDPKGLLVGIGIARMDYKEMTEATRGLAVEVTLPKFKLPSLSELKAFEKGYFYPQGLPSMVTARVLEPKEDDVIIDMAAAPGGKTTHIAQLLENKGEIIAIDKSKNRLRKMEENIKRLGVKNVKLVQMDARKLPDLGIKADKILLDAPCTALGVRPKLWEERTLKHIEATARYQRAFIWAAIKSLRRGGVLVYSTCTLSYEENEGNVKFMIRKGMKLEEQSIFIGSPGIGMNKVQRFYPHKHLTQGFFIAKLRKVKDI
# PhNSun6 (PH1991) [2] = biological target: T1, PhNSun6 (PH1991); assay: X-ray crystal structure of the complex, […] A; type: binding; conditions: co-crystallised with 1 mM ligand, pH 6.5, 16 °C; Rossmann-fold cofactor site; no tRNA
smiles,measurement,setting,value
"Nc1ncnc2c1ncn2[C@@H]1O[C@H](C[C@@H](N)CC[C@H](N)C(=O)O)[C@@H](O)[C@H]1O [SFG, sinefungin]","X-ray crystal structure of the complex, 2.50 A",PhNSun6 (PH1991) [1],"PhNSun6 complexed with SAM, SFG and SAH"
"C[S+](CC[C@H](N)C(=O)O)C[C@H]1O[C@@H](n2cnc3c(N)ncnc32)[C@H](O)[C@@H]1O (stereo partly drawn) [SAM, S-adenosyl-methionine]","X-ray crystal structure of the complex, 2.50 A","PhNSun6 (PH1991) [1]; methyl donor, also turned over with tRNA at 65 °C, pH 7.5","PhNSun6 complexed with SAM, SFG and SAH"
"Nc1ncnc2c1ncn2[C@@H]1O[C@H](CSCC[C@H](N)C(=O)O)[C@@H](O)[C@H]1O [SAH, S-adenosyl-homocysteine]","X-ray crystal structure of the complex, 2.18 A",PhNSun6 (PH1991) [2],"form the binding pocket for the cofactor SAH, as shown in Figure 5B"
